Laboratory results taken from patent US9850225B2, “Compounds useful as immunomodulators” (BRISTOL-MYERS SQUIBB COMPANY, priority 2014, dated 2017).

What follows are compounds tested against PD-1/PD-L1 interaction (PD-1-Ig / PD-L1-His) (Homo sapiens (Human), UniProt Q9NZQ7) (assay: PD-1/PD-L1 Homogenous Time-Resolved Fluorescence (HTRF) binding assay). Details: PD-1/PD-L1 HTRF binding assay; value given as range class; read-out: Range or IC50.
Outline: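 HTRF detection used 1 nM europium-cryptate anti-Ig and 20 nM APC anti-His. Compounds first saw 10 nM PD-L1-His for 15 min, and 20 nM PD-1-Ig was then added for another 15 min. Buffer was dPBS plus 0.1% BSA and 0.05% Tween-20. All concentrations are final.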

Sequence of PD-1/PD-L1 interaction (PD-1-Ig / PD-L1-His) (Q9NZQ7 other isoform, or with tags, fused parts or gaps): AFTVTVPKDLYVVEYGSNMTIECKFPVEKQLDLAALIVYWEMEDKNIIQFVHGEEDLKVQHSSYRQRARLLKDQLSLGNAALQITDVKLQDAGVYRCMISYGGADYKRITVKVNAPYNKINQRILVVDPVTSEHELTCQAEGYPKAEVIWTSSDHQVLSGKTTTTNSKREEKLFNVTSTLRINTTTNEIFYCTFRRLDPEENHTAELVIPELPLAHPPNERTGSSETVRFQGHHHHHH

| SMILES | IC50 [nM] |
| --- | --- |
| Cc1c(COc2cc(OCc3cccc(C#N)c3)c(CNC3(C(=O)O)CC3)cc2Cl)cccc1-c1ccc2c(c1)OCCO2 [Example 1177, 1-((5-chloro-2-((3-cyanobenzyl)oxy)-4-((3-(2,3-dihydrobenzo[b][1,4]dioxin-6-yl)-2-methylbenzyl)oxy)benzyl)amino)cyclopropanecarboxylic acid] | 0.6 to 10 |
| COC(C)(C)C(NCc1cc(Cl)c(OCc2cccc(-c3ccc4c(c3)OCCO4)c2C)cc1OCc1cccc(C#N)c1)C(=O)O (stereo not shown) [Example 1179, 2-((5-chloro-2-((3-cyanobenzyl)oxy)-4-((3-(2,3-dihydrobenzo[b][1,4]dioxin-6-yl)-2-methylbenzyl)oxy)benzyl)amino)-3-methoxy-3-methylbutanoic acid] | 10 to 100 |
| Cc1c(COc2cc(OCc3cccc(C#N)c3)c(CN[C@@H](CC#N)C(=O)O)cc2Cl)cccc1-c1ccc2c(c1)OCCO2 [Example 1180, (S)-2-((5-chloro-2-((3-cyanobenzyl)oxy)-4-((3-(2,3-dihydrobenzo[b][1,4]dioxin-6-yl)-2-methylbenzyl)oxy)benzyl)amino)-3-cyanopropanoic acid] | 10 to 100 |
| Cc1c(COc2cc(OCc3cccc(C#N)c3)c(CN(C)[C@@H](CO)C(=O)O)cc2Cl)cccc1-c1ccc2c(c1)OCCO2 [Example 1183, (S)-2-((5-chloro-2-((3-cyanobenzyl)oxy)-4-((3-(2,3-dihydrobenzo[b][1,4]dioxin-6-yl)-2-methylbenzyl)oxy)benzyl)(methyl)amino)-3-hydroxypropanoic acid] | 0.6 to 10 |
| Cc1c(COc2cc(OCc3cccc(C#N)c3)c(CN[C@@H](Cc3cn(Cc4ccccc4)cn3)C(=O)O)cc2Cl)cccc1-c1ccc2c(c1)OCCO2 [Example 1186, (S)-3-(1-benzyl-1H-imidazol-4-yl)-2-((5-chloro-2-((3-cyanobenzyl)oxy)-4-((3-(2,3-dihydrobenzo[b][1,4]dioxin-6-yl)-2-methylbenzyl)oxy)benzyl)amino)propanoic acid] | 0.6 to 10 |
| Cc1c(COc2cc(OCc3cccc(C#N)c3)c(CNC(Cc3ccc(O)cc3)C(=O)O)cc2Cl)cccc1-c1ccc2c(c1)OCCO2 (stereo not shown) [Example 1187, 2-((5-chloro-2-((3-cyanobenzyl)oxy)-4-((3-(2,3-dihydrobenzo[b][1,4]dioxin-6-yl)-2-methylbenzyl)oxy)benzyl)amino)-3-(4-hydroxyphenyl)propanoic acid] | 10 to 100 |
| Cc1c(COc2cc(OCc3cccc(C#N)c3)c(CN(C)C(C)C(=O)O)cc2Cl)cccc1-c1ccc2c(c1)OCCO2 (stereo not shown) [Example 1188, 2-((5-chloro-2-((3-cyanobenzyl)oxy)-4-((3-(2,3-dihydrobenzo[b][1,4]dioxin-6-yl)-2-methylbenzyl)oxy)benzyl)(methyl)amino)propanoic acid] | 0.6 to 10 |
| Cc1c(COc2cc(OCc3cccc(C#N)c3)c(CN[C@H](C(=O)O)[C@H](C)O)cc2Cl)cccc1-c1ccc2c(c1)OCCO2 [Example 1189, (2S,3S)-2-((5-chloro-2-((3-cyanobenzyl)oxy)-4-((3-(2,3-dihydrobenzo[b][1,4]dioxin-6-yl)-2-methylbenzyl)oxy)benzyl)amino)-3-hydroxybutanoic acid] | 0.6 to 10 |
| Cc1c(COc2cc(OCc3cccc(C#N)c3)c(CN3CCC[C@@H](C(=O)O)[C@H]3C(=O)O)cc2Cl)cccc1-c1ccc2c(c1)OCCO2 [Example 1190, (2S,3R)-1-(5-chloro-2-((3-cyanobenzyl)oxy)-4-((3-(2,3-dihydrobenzo[b][1,4]dioxin-6-yl)-2-methylbenzyl)oxy)benzyl)piperidine-2,3-dicarboxylic acid] | 0.6 to 10 |
| Cc1c(COc2cc(OCc3cccc(C#N)c3)c(CNC(C)(Cc3c[nH]cn3)C(=O)O)cc2Cl)cccc1-c1ccc2c(c1)OCCO2 (stereo not shown) [Example 1191, 2-((5-chloro-2-((3-cyanobenzyl)oxy)-4-((3-(2,3-dihydrobenzo[b][1,4]dioxin-6-yl)-2-methylbenzyl)oxy)benzyl)amino)-3-(1H-imidazol-4-yl)-2-methylpropanoic acid] | 0.6 to 10 |
| CC[C@@H](NCc1cc(Cl)c(OCc2cccc(-c3ccc4c(c3)OCCO4)c2C)cc1OCc1cccc(C#N)c1)C(=O)O [Example 1193, (R)-2-((5-chloro-2-((3-cyanobenzyl)oxy)-4-((3-(2,3-dihydrobenzo[b][1,4]dioxin-6-yl)-2-methylbenzyl)oxy)benzyl)amino)butanoic acid] | 0.6 to 10 |
| Cc1c(COc2cc(OCc3cccc(C#N)c3)c(CN[C@H](COCc3ccccc3)C(=O)O)cc2Cl)cccc1-c1ccc2c(c1)OCCO2 [Example 1194, (R)-3-(benzyloxy)-2-((5-chloro-2-((3-cyanobenzyl)oxy)-4-((3-(2,3-dihydrobenzo[b][1,4]dioxin-6-yl)-2-methylbenzyl)oxy)benzyl)amino)propanoic acid] | 10 to 100 |
| Cc1c(COc2cc(OCc3cccc(C#N)c3)c(CN[C@@H](CCS(C)(=O)=O)C(=O)O)cc2Cl)cccc1-c1ccc2c(c1)OCCO2 [Example 1200, (S)-2-((5-chloro-2-((3-cyanobenzyl)oxy)-4-((3-(2,3-dihydrobenzo[b][1,4]dioxin-6-yl)-2-methylbenzyl)oxy)benzyl)amino)-4-(methylsulfonyl)butanoic acid] | 10 to 100 |
| Cc1c(COc2cc(OCc3cccc(C#N)c3)c(CN(C)[C@@H](CC(=O)O)C(=O)O)cc2Cl)cccc1-c1ccc2c(c1)OCCO2 [Example 1203, (S)-2-((5-chloro-2-((3-cyanobenzyl)oxy)-4-((3-(2,3-dihydrobenzo[b][1,4]dioxin-6-yl)-2-methylbenzyl)oxy)benzyl)(methyl)amino)succinic acid] | 0.6 to 10 |
| Cc1c(COc2cc(OCc3cccc(C#N)c3)c(CN3CC[C@@H](O)[C@H]3C(=O)O)cc2Cl)cccc1-c1ccc2c(c1)OCCO2 [Example 1204, (2S,3R)-1-(5-chloro-2-((3-cyanobenzyl)oxy)-4-((3-(2,3-dihydrobenzo[b][1,4]dioxin-6-yl)-2-methylbenzyl)oxy)benzyl)-3-hydroxypyrrolidine-2-carboxylic acid] | 0.6 to 10 |

More lines, now with the values ahead:

| IC50 [nM] | SMILES |
| --- | --- |
| 10 to 100 | Cc1c(COc2cc(OCc3cccc(C#N)c3)c(CNC(Cc3nccs3)C(=O)O)cc2Cl)cccc1-c1ccc2c(c1)OCCO2 (stereo not shown) [Example 1178, 2-((5-chloro-2-((3-cyanobenzyl)oxy)-4-((3-(2,3-dihydrobenzo[b][1,4]dioxin-6-yl)-2-methylbenzyl)oxy)benzyl)amino)-3-(thiazol-2-yl)propanoic acid] |
| 10 to 100 | Cc1c(COc2cc(OCc3cccc(C#N)c3)c(CNC(Cc3ccccc3O)C(=O)O)cc2Cl)cccc1-c1ccc2c(c1)OCCO2 (stereo not shown) [Example 1181, 2-((5-chloro-2-((3-cyanobenzyl)oxy)-4-((3-(2,3-dihydrobenzo[b][1,4]dioxin-6-yl)-2-methylbenzyl)oxy)benzyl)amino)-3-(2-hydroxyphenyl)propanoic acid] |
| 0.6 to 10 | Cc1c(COc2cc(OCc3cccc(C#N)c3)c(CNC(CCS(C)(=O)=O)C(=O)O)cc2Cl)cccc1-c1ccc2c(c1)OCCO2 (stereo not shown) [Example 1182, 2-((5-chloro-2-((3-cyanobenzyl)oxy)-4-((3-(2,3-dihydrobenzo[b][1,4]dioxin-6-yl)-2-methylbenzyl)oxy)benzyl)amino)-4-(methylsulfonyl)butanoic acid] |
| 0.6 to 10 | COCC(NCc1cc(Cl)c(OCc2cccc(-c3ccc4c(c3)OCCO4)c2C)cc1OCc1cccc(C#N)c1)C(=O)O (stereo not shown) [Example 1184, 2-((5-chloro-2-((3-cyanobenzyl)oxy)-4-((3-(2,3-dihydrobenzo[b][1,4]dioxin-6-yl)-2-methylbenzyl)oxy)benzyl)amino)-3-methoxypropanoic acid] |
| 10 to 100 | Cc1c(COc2cc(OCc3cccc(C#N)c3)c(CNC(Cc3c[nH]c4ncccc34)C(=O)O)cc2Cl)cccc1-c1ccc2c(c1)OCCO2 (stereo not shown) [Example 1185, 2-((5-chloro-2-((3-cyanobenzyl)oxy)-4-((3-(2,3-dihydrobenzo[b][1,4]dioxin-6-yl)-2-methylbenzyl)oxy)benzyl)amino)-3-(1H-pyrrolo[2,3-b]pyridin-3-yl)propanoic acid] |
| 100 to 20000 | Cc1c(COc2cc(OCc3cccc(C#N)c3)c(CNC(Cc3c[nH]c4ccccc34)C(=O)O)cc2Cl)cccc1-c1ccc2c(c1)OCCO2 (stereo not shown) [Example 1192, 2-((5-chloro-2-((3-cyanobenzyl)oxy)-4-((3-(2,3-dihydrobenzo[b][1,4]dioxin-6-yl)-2-methylbenzyl)oxy)benzyl)amino)-3-(1H-indol-3-yl)propanoic acid] |
| 0.6 to 10 | Cc1c(COc2cc(OCc3cccc(C#N)c3)c(CN[C@@H](C(=O)O)[C@H](C)O)cc2Cl)cccc1-c1ccc2c(c1)OCCO2 [Example 1195, (2R,3S)-2-((5-chloro-2-((3-cyanobenzyl)oxy)-4-((3-(2,3-dihydrobenzo[b][1,4]dioxin-6-yl)-2-methylbenzyl)oxy)benzyl)amino)-3-hydroxybutanoic acid] |
| 0.6 to 10 | Cc1c(COc2cc(OCc3cccc(C#N)c3)c(CN3CCCC[C@@H]3C(=O)O)cc2Cl)cccc1-c1ccc2c(c1)OCCO2 [Example 1198, (R)-1-(5-chloro-2-((3-cyanobenzyl)oxy)-4-((3-(2,3-dihydrobenzo[b][1,4]dioxin-6-yl)-2-methylbenzyl)oxy)benzyl)piperidine-2-carboxylic acid] |
| 0.6 to 10 | CC[C@H](NCc1cc(Cl)c(OCc2cccc(-c3ccc4c(c3)OCCO4)c2C)cc1OCc1cccc(C#N)c1)C(=O)O [Example 1201, (S)-2-((5-chloro-2-((3-cyanobenzyl)oxy)-4-((3-(2,3-dihydrobenzo[b][1,4]dioxin-6-yl)-2-methylbenzyl)oxy)benzyl)amino)butanoic acid] |
| 10 to 100 | CSCC[C@H](NCc1cc(Cl)c(OCc2cccc(-c3ccc4c(c3)OCCO4)c2C)cc1OCc1cccc(C#N)c1)C(=O)O [Example 1202, (S)-2-((5-chloro-2-((3-cyanobenzyl)oxy)-4-((3-(2,3-dihydrobenzo[b][1,4]dioxin-6-yl)-2-methylbenzyl)oxy)benzyl)amino)-4-(methylthio)butanoic acid] |
